In PMC5745756, “N,N-disubstituted azines attenuate LPS-mediated neuroinflammation in microglia and neuronal apoptosis via inhibiting MAPK signaling pathways” (BMC Neuroscience, 2017):
Where two headings read alike, the source gives them in different places.

Legend:
Assay type in all cases: cell-based, murine
[1] = MTT cell viability of LPS-activated BV-2 cells; conditions: mouse, LPS-activated BV-2 microglial cells; 20 µM compound; percentage of the LPS-only treatment group; mean ± standard deviation, three experiments
Procedure: (§1) […] or MTT assay was performed as described by our previous publication with slight modification. In order to measure MTT and NO production, BV-2 cells were plated into a 96-well plate at a density of 4 × 10^4 cells/well. […] Then, nitrite (a soluble oxidation product of NO) was detected in the culture media by using the Griess reaction. The supernatant (50 µL) was collected and mixed with an equal volume of Griess reagent (1% sulfanilamide in phosphoric acid and 0.1% N-1-napthylethylenediamine dihydrochloride). The absorbance was measured at 570 nm by using a microplate reader. Sodium nitrite was used to create a standard curve from which the NO2 concentration was calculated. The cell viability was evaluated by spectrophotometrically measuring the reduction of yellow 3-[4,5-dimethylthiazol-2-yl]-2,5-diphenyltetrazolium bromide (MTT) to purple formazan crystals. MTT was dissolved in DMEM, added to the culture plate containing cells at a final concentration of 0.5 mg/mL, and incubated for 1 h. The medium containing the MTT solution was carefully removed, and 200 µL DMSO was added to each well. After solubilizing the stained cells to produce a formazan-colored solution, the optical density (OD) was measured on a microplate reader at 570 nm, and the results were expressed as a percentage of the LPS-treated group. The same plate was used for the NO and MTT assays. The cell supernatant was used for the NO assay, and the plated cells were used for the MTT assay.
(§2) The NO production and cell viability of LPS-activated BV-2 cells were measured after treatment with azine derivatives using Griess reagent and MTT assay, respectively.

[2] = tested on: BV-2 cells; assay: MTT cell viability of LPS-activated BV-2 cells
Procedure: as §1, §2

[3] = tested on: NO production in LPS-activated BV-2 cells; assay: Nitrite (Griess) assay of NO production in LPS-activated BV-2 cells; conditions: Mus musculus, read-out: IC50, concentration that caused 50% inhibition of NO production in LPS-activated BV-2 cells
Procedure: as §1, §2

[4] = BV-2, 100 ng/mL LPS, 24 h, Griess reaction

| IC50 [3, 4] [µM] | Compound | viability at 24 h, 20 µM [1] [%] | Toxicity in BV-2 cells (discussion) [2] | IC50 ([3]; BV-2, 24 h) [µM] |
| --- | --- | --- | --- | --- |
| > 500 | C(=NN=Cc1cnc2ccccc2c1)c1cnc2ccccc2c1 [Compound 4, 1,2-Bis(quinolin-3-ylmethylene)hydrazine] | 91 ± 3.39 |  |  |
| 50.1 | C/C(C=NN=C/C(C)=C/c1ccccc1)=C\c1ccccc1 [Compound 2, 1,2-Bis((E)-2-methyl-3-phenylallylidene)hydrazine] | 96.6 ± 1.75 |  |  |
|  | O=[N+]([O-])c1ccccc1/C=C/C=NN=C/C=C/c1ccccc1[N+](=O)[O-] [Compound 6, 1,2-Bis((E)-3-(2-nitrophenyl)allylidene)hydrazine] | 87.9 ± 19.5 |  | 47.4 |
| 58.5 | COc1ccc(/C=C/C=NN=C/C=C/c2ccc(OC)cc2)cc1 [Compound 1, 1,2-Bis((E)-3-(4-methoxyphenyl)allylidene)hydrazine] | 90.3 ± 9.37 |  |  |
| 18.3 | [H]/N=C(/NC)NCCC[C@H](N)C(=O)O [L-NMMA, L-NG-monomethylarginine, reference compound] | 100 ± 3.41 |  |  |
| 26.3 | C(=NN=Cc1ccc(N(c2ccccc2)c2ccccc2)cc1)c1ccc(N(c2ccccc2)c2ccccc2)cc1 [Compound 9, 4,4′-Hydrazine-1,2-diylidenebis(methan-1-yl-1-ylidene)bis(N,N-diphenylaniline)] | 83.5 ± 7.78 |  |  |

| Compound | IC50 [3, 4] [µM] | viability at 24 h, 20 µM [1] [%] | Toxicity in BV-2 cells (discussion) [2] | IC50 ([3]; BV-2, 24 h) [µM] |
| --- | --- | --- | --- | --- |
| C(C=C(c1ccccc1)c1ccccc1)=NN=CC=C(c1ccccc1)c1ccccc1 [Compound 8, 1,2-Bis(3,3-diphenylallylidene)hydrazine] | 47.9 | 69.5 ± 3.25 | high toxicity |  |
| Clc1ccc(/C=C/C=NN=C/C=C/c2ccc(Cl)cc2)cc1 [Compound 7, 1,2-Bis((E)-3-(4-chlorophenyl)allylidene)hydrazine] | 39.9 | 77.2 ± 5.67 | high toxicity |  |
